ChEMBL document CHEMBL3046928, “Skimmianine, a furoquinoline alkaloid from Zanthoxylum nitidum as a potential acetylcholinesterase inhibitor” (Med Chem Res, 2012)
Active and inactive are the calls of the source. The rule behind the calls is not given here.

Experiments:
Acetylcholinesterase [1] = target: T1, Acetylcholinesterase (Homo sapiens, UniProt P22303); settings: at 0.1 mg/mL
Acetylcholinesterase [2] = target: T1, Acetylcholinesterase
Acetylcholinesterase [3] = target: T1, Acetylcholinesterase; experiment: Inhibition of AChE (unknown origin) at 10 mg/ml after 20 min by TLC bioautographic assay

T1 sequence (P22303 whole entry): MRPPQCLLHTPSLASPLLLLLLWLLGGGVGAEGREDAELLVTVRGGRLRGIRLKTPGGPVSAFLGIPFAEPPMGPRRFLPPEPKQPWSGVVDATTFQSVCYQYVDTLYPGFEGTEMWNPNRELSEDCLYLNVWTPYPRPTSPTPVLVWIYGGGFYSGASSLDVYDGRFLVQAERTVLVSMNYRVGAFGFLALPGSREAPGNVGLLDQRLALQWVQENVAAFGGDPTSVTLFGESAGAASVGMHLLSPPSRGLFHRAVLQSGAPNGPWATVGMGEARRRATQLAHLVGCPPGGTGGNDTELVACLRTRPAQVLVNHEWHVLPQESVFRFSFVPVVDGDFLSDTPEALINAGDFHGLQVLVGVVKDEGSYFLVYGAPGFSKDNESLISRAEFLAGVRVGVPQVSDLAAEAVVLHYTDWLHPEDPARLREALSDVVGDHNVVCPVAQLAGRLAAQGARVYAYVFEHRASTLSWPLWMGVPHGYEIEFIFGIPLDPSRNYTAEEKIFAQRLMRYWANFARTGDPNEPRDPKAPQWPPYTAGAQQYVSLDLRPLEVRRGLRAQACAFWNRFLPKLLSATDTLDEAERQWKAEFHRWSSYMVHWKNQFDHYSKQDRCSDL

SMILES	inhibition (Acetylcholinesterase [1])	IC50 (Acetylcholinesterase [2])	IC50 (Acetylcholinesterase [2]; read-out: IC50 (converted))	inhibition (Acetylcholinesterase [3])
COc1cccc2c3c(c(=O)n(C)c12)[C@@H](O)[C@H](O)C(C)(C)O3 (relative stereo) [REL-ZANTHODIOLINE]	34.4%	Not Active	–	–
COc1cc2oc(=O)ccc2c(OC)c1OC [5,6,7-TRIMETHOXYCOUMARIN]	49.7%	–	> 423 µM	–
COc1c(C[C@H](C)C(C)(C)O)c(=O)n(C)c2ccccc12 [(-)-(S)-EDULININE]	19.4%	Not Active	–	–
COc1c2ccccc2nc2occc12 [DICTAMNINE]	12.6%	Not Active	–	–
COc1cc(=O)[nH]c2c(OC)cccc12 [EDULITINE]	45.1%	–	> 487 µM	–
COc1c2ccoc2nc2c(OC)cccc12 [GAMMA-FAGARINE]	24.3%	Not Active	–	–
COc1c2[nH]c3occc3c(OC)c-2ccc1=O [HAPLOPINE]	51.9%	–	> 408 µM	–
COc1ccc(C(=O)[C@@H]2CO[C@H](c3ccc4c(c3)OCO4)[C@H]2CO)cc1OC [MAGNOLONE]	9.9%	Not Active	–	–
COc1ccc2c(OC)c3ccoc3nc2c1OC [SKIMMIANINE]	91.3%	–	33.2 µM	Active
COc1cc2oc(=O)ccc2c(OC)c1C[C@@H](O)C(C)(C)O [TODDALOLACTONE]	33.9%	Not Active	–	–
